Measurements published in PMC12219900, “Mechanistic insights into Bcs1-mediated mitochondrial membrane translocation of the folded Rieske protein” (The EMBO Journal, 2025).

B1: Bcs1 (yeast Bcs1 heptamer) (enzyme, S. cerevisiae, UniProt P32839 1-456, looked up)
chain: MSDKPIDIQYDKQATPNLSGVITPPTNETGNDSVREKLSKLVGDAMSNNPYFAAGGGLMILGTGLAVARSGIIKASRVLYRQMIVDLEIQSKDKSYAWFLTWMAKHPQRVSRHLSVRTNYIQHDNGSVSTKFSLVPGPGNHWIRYKGAFILIKRERSAKMIDIANGSPFETVTLTTLYRDKHLFDDILNEAKDIALKTTEGKTVIYTSFGPEWRKFGQPKAKRMLPSVILDSGIKEGILDDVYDFMKNGKWYSDRGIPYRRGYLLYGPPGSGKTSFIQALAGELDYNICILNLSENNLTDDRLNHLMNNMPERSILLLEDIDAAFNKRSQTGEQGFHSSVTFSGLLNALDGVTSSEETITFMTTNHPEKLDAAIMRPGRIDYKVFVGNATPYQVEKMFMKFYPGETDICKKFVNSVKELDITVSTAQLQGLFVMNKDAPHDALKMVSSLRNANHIF
notes: Bcs1, S. cerevisiae, YDR375C, residues 1-456 (coding region of the gene); N-terminal 6xHis-FLAG-3C tag; no cleavage with 3C protease is described for Bcs1; AAA ATPase that forms heptameric rings; also called yBcs1; bc1 synthesis 1

Experiments:
yBcs1 (Bcs1 heptamer) = target: T1, yBcs1 (Bcs1 heptamer) (Saccharomyces cerevisiae, UniProt P32839); assay: cryo-EM structure; BN-PAGE shift; format: binding; details: 2 mM ATPγS, 2.5 mM MgCl2, pH 7.5, 25 °C; all seven AAA sites; two states ATPγS1 (9GSN) and ATPγS2 (9GU9)
T1 construct: full length 1-456, N-terminal 6xHis-FLAG-3C tag (cleavage not described), expressed in S. cerevisiae W303 bcs1delta, digitonin-solubilised, SEC in GDN, homoheptamer about 700 kDa on BN-PAGE
T1 sequence (P32839 1-456): B1 chain

Bcs1-ATPγS2-Rip1-FeS = target: T2, Bcs1-ATPγS2-Rip1-FeS (Saccharomyces cerevisiae, UniProt P32839); assay: cryo-EM structure; format: binding; details: Rip1-FeS added before 2 mM ATPγS, 2.5 mM MgCl2, pH 7.5, 25 °C; map only (EMD-51562)
T2 construct: Bcs1 heptamer (His6-FLAG-3C, from yeast) preloaded with E. coli-expressed Rip1-FeS (aa 83-215; TwinStrep tag, 3C-treated; plasmid named Rip1 delta81); with Cytochrome b-c1 complex subunit Rieske, mitochondrial
T2 sequence (P32839 1-456): B1 chain
T2 sequence (P08067 83-215 partner): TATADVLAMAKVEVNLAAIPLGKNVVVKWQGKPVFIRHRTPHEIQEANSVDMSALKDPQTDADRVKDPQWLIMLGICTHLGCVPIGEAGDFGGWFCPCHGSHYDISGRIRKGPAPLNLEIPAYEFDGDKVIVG

[1] = target: the molecule itself; assay: cryo-EM structure; Bcs1 first incubated with Rip1-FeS in BN-buffer with 2.5 mM MgCl2 for 10 min at 25 °C, then 2 mM ATPγS for 10 min; ATPγS2 state

Molecule	cryo-EM structure; BN-PAGE shift (yBcs1 (Bcs1 heptamer))	cryo-EM structure (Bcs1-ATPγS2-Rip1-FeS)	stoichiometry N [1]
Nc1ncnc2c1ncn2[C@@H]1O[C@H](COP(=O)(O)OP(=O)(O)OP(O)(O)=S)[C@@H](O)[C@H]1O [ATPγS]	ATPγS density was observed in each of the seven protomers as well	with all seven ATP-binding pockets exhibiting ATPγS density	–
B1	–	–	7
